These results are taken from patent US20160145247A1, “Aminomethyl-Biaryl Derivatives Complement Factor D inhibitors and uses thereof” (NOVARTIS AG, priority 2013, published 2016).

pIC50: −log10 of the molar value.

T1 sequence (P00746 26-253): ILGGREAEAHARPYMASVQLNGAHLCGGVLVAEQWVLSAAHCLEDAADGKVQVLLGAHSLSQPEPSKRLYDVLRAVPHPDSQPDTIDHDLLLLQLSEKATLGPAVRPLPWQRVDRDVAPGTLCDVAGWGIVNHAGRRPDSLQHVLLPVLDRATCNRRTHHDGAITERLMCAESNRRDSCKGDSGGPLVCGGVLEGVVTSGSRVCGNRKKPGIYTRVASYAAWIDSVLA

The experiment addresses T1, factor D (Homo sapiens, UniProt P00746).
T1 construct: made in house; host or cells: E. coli
The experiment in a line: factor D inhibition assay of Biological Example 2. The experiment is classed as biochemical.
The pIC50 is the IC50 on a negative log10 scale, so that one unit is a factor of ten. As to `C[C@@H](N)c1cccc(-c2cc(CCC3CCOCC3)cc(COc3ccccc3CC(=O)O)c2)c1F` [Example 248, (R)-2-(2-((3′-(1-aminoethyl)-2′-fluoro-5-(2-(tetrahydro-2H-pyran-4-yl)ethyl)-[1,1′-biphenyl]-3-yl)methoxy)phenyl)acetic acid], the pIC50 was 6.85. The same measure for `CCOC(=O)Cc1ccccc1OCc1cc(NC[C@H]2CCCO2)cc(-c2cccc([C@@H](C)N)c2F)c1` [Example 249, Ethyl 2-(2-((3′-((R)-1-aminoethyl)-2′-fluoro-5-((((R)-tetrahydrofuran-2-yl)methyl)amino)-[1,1′-biphenyl]-3-yl)methoxy)phenyl)acetate]: 4.57; for `C[C@@H](N)c1cccc(-c2cc(COc3ccccc3CC(=O)O)cc(S(C)(=O)=O)c2)c1F` [Example 250-D, (R)-2-(2-((3′-(1-aminoethyl)-2′-fluoro-5-(methylsulfonyl)-[1,1′-biphenyl]-3-yl)methoxy)phenyl)acetic acid]: 6.95; for `C[C@@H](N)c1cccc(-c2cc(COc3ccccc3CC(=O)O)cc(S(C)(=O)=O)c2)c1` [Example 251, (R)-2-(2-((3′-(1-aminoethyl)-5-(methylsulfonyl)-[1,1′-biphenyl]-3-yl)methoxy)phenyl)acetic acid]: 6.80. In turn, `C[C@H](N)c1cccc(-c2cc(COc3ccccc3CC(=O)O)cc(S(C)(=O)=O)c2)c1F` [Example 252, (S)-2-(2-((3′-(1-aminoethyl)-2′-fluoro-5-(methylsulfonyl)-[1,1′-biphenyl]-3-yl)methoxy)phenyl)acetic acid] showed a pIC50 of 5.80. The same measure for `C[C@@H](N)c1cccc(-c2cc(COc3ccccc3CC(=O)O)c3c(c2)OCO3)c1F` [Example 253-E, (R)-2-(2-((6-(3-(1-Aminoethyl)-2-fluorophenyl)benzo[d][1,3]dioxol-4-yl)methoxy)phenyl)acetic acid]: 7.89.

With `C[C@@H](N)c1cccc(-c2cc(COc3ccccc3CC(=O)O)c3c(c2)OCO3)c1` [Example 254, (R)-2-(2-((6-(3-(1-aminoethyl)phenyl)benzo[d][1,3]dioxol-4-yl)methoxy)phenyl)acetic acid], the pIC50 is 7.49. The same measure for `N[C@H](CO)c1cccc(-c2cc(COc3ccccc3CC(=O)O)c3c(c2)OCO3)c1` [Example 255, (S)-2-(2-((6-(3-(1-amino-2-hydroxyethyl)phenyl)benzo[d][1,3]dioxol-4-yl)methoxy)phenyl)acetic acid]: 8.05; for `CCOc1cc(COc2ccccc2CC(=O)O)cc(-c2cccc([C@@H](C)N)c2F)c1` [Example 256-B, (R)-2-(2-((3′-(1-Aminoethyl)-5-ethoxy-2′-fluoro-[1,1′-biphenyl]-3-yl)methoxy)phenyl)acetic acid]: 8.52.

With `CCOc1cc(COc2ccccc2CC(=O)O)cc(-c2cccc([C@@H](C)N)c2)c1` [Example 257, (R)-2-(2-((3′-(1-aminoethyl)-5-ethoxy-[1,1′-biphenyl]-3-yl)methoxy)phenyl)acetic acid], the negative logarithm of the IC50 (pIC50) was 8.05. Regarding `CCOc1cc(COc2ccccc2CC(=O)O)cc(-c2cccc(C(N)CF)c2F)c1` (stereo not drawn) [Example 258-C, 2-(2-((3′-(1-amino-2-fluoroethyl)-5-ethoxy-2′-fluoro-[1,1′-biphenyl]-3-yl)methoxy)phenyl)acetic acid], the negative logarithm of the IC50 (pIC50) was 7.96.

`C[C@@H](N)c1cccc(-c2cc(COc3ccccc3CC(=O)O)cc(OCC3(C)CC3)c2)c1F` [Example 259-E, (R)-2-(2-((3′-(1-aminoethyl)-2′-fluoro-5-((1-methylcyclopropyl)methoxy)-[1,1′-biphenyl]-3-yl)methoxy)phenyl)acetic acid] had a negative logarithm of the IC50 (pIC50) of 7.66. The same measure for `C[C@H](N)c1cccc(-c2cc(COc3ccccc3CC(=O)O)cc(OCC3(C)CC3)c2)c1F` [Example 260, (S)-2-(2-((3′-(1-aminoethyl)-2′-fluoro-5-((1-methylcyclopropyl)methoxy)-[1,1′-biphenyl]-3-yl)methoxy)phenyl)acetic acid]: 7.41; for `C[C@@H](N)c1cccc(-c2cc(COc3ccccc3CC(=O)O)cc(OCC3(C)CC3)c2)c1` [Example 261, (R)-2-(2-((3′-(1-aminoethyl)-5-((1-methylcyclopropyl)methoxy)-[1,1′-biphenyl]-3-yl)methoxy)phenyl)acetic acid]: 7.62.

Turning to `C[C@@H](N)c1cccc(-c2cc(COc3ccccc3CC(=O)O)cc(OCC3(C)COC3)c2)c1F` [Example 262, (R)-2-(2-((3′-(1-aminoethyl)-2′-fluoro-5-((3-methyloxetan-3-yl)methoxy)-[1,1′-biphenyl]-3-yl)methoxy)phenyl)acetic acid], the negative-log IC50 (pIC50) is 7.39. The same measure for `C[C@@H](N)c1cccc(-c2cc(COc3ccccc3CC(=O)O)cc(OCC3(C)COC3)c2)c1` [Example 263, (R)-2-(2-((3′-(1-aminoethyl)-5-((3-methyloxetan-3-yl)methoxy)-[1,1′-biphenyl]-3-yl)methoxy)phenyl)acetic acid]: 7.85. The compound `C[C@@H](N)c1cccc(-c2cc(COc3ccccc3CC(=O)O)cc(OCC3CCCCO3)c2)c1F` (stereo partly drawn) [Example 264, 2-(2-((3′-((R)-1-aminoethyl)-2′-fluoro-5-((tetrahydro-2H-pyran-2-yl)methoxy)-[1,1′-biphenyl]-3-yl)methoxy)phenyl)acetic acid] showed a negative-log IC50 (pIC50) of 7.82. The same measure for `C[C@@H](N)c1cccc(-c2cc(COc3ccccc3CC(=O)O)cc(OCC3CCCCO3)c2)c1` (stereo partly drawn) [Example 265, 2-(2-((3′-((R)-1-aminoethyl)-5-((tetrahydro-2H-pyran-2-yl)methoxy)-[1,1′-biphenyl]-3-yl)methoxy)phenyl)acetic acid]: 8.15; for `C[C@@H](N)c1cccc(-c2cc(COc3ccccc3CC(=O)O)cc(OCC3CCCN3)c2)c1F` (stereo partly drawn) [Example 266, 2-(2-((3′-((R)-1-aminoethyl)-2′-fluoro-5-(pyrrolidin-2-ylmethoxy)-[1,1′-biphenyl]-3-yl)methoxy)phenyl)acetic acid]: 7.47. The same measure for `C[C@@H](N)c1cccc(-c2cc(COc3ccccc3CC(=O)O)cc(OCC3CCCN3)c2)c1` (stereo partly drawn) [Example 267, 2-(2-((3′-((R)-1-aminoethyl)-5-(pyrrolidin-2-ylmethoxy)-[1,1′-biphenyl]-3-yl)methoxy)phenyl)acetic acid]: 7.41; for `CCOC(=O)Cc1ccccc1OCc1cccc(-c2cccc([C@H](N)CO)c2)c1` [Example 268-C, (S)-Ethyl 2-(2-((3′-(1-amino-2-hydroxyethyl)-[1,1′-biphenyl]-3-yl)methoxy)phenyl)acetate]: 4.26.

`C[C@@H](N)c1cccc(-c2cc(CCCF)cc(COc3ccccc3CC(=O)O)c2)c1F` [Example 269-E, (R)-2-(2-((3′-(1-aminoethyl)-2′-fluoro-5-(3-fluoropropyl)-[1,1′-biphenyl]-3-yl)methoxy)phenyl)acetic acid] showed a negative logarithm of the IC50 (pIC50) of 8.05.

As for `C[C@H](N)c1cccc(-c2cc(CCCF)cc(COc3ccccc3CC(=O)O)c2)c1F` [Example 270, (S)-2-(2-((3′-(1-aminoethyl)-2′-fluoro-5-(3-fluoropropyl)-[1,1′-biphenyl]-3-yl)methoxy)phenyl)acetic acid], the negative logarithm of the IC50 (pIC50) is 7.96.

`C[C@@H](N)c1cccc(-c2cc(CCCF)cc(COc3ccccc3CC(=O)O)c2)c1` [Example 271, (R)-2-(2-((3′-(1-aminoethyl)-5-(3-fluoropropyl)-[1,1′-biphenyl]-3-yl)methoxy)phenyl)acetic acid] had a negative logarithm of the IC50 (pIC50) of 8.00. `N[C@H](CO)c1cccc(-c2cc(CCCF)cc(COc3ccccc3CC(=O)O)c2)c1` [Example 272, (S)-2-(2-((3′-(1-amino-2-hydroxyethyl)-5-(3-fluoropropyl)-[1,1′-biphenyl]-3-yl)methoxy)phenyl)acetic acid] gave a pIC50 of 8.00. The same measure for `Cc1ccc(-c2cccc([C@@H](C)N)c2F)cc1COc1ccccc1CC(=O)O` [Example 273-B, (R)-2-(2-((3′-(1-aminoethyl)-2′-fluoro-4-methyl-[1,1′-biphenyl]-3-yl)methoxy)phenyl)acetic acid]: 7.85. To `Cc1ccc(-c2cccc([C@H](C)N)c2F)cc1COc1ccccc1CC(=O)O` [Example 274, (S)-2-(2-((3′-(1-aminoethyl)-2′-fluoro-4-methyl-[1,1′-biphenyl]-3-yl)methoxy)phenyl)acetic acid] belongs 6.47. To `C[C@@H](N)c1cccc(-c2ccc(Cl)c(COc3ccccc3CC(=O)O)c2)c1F` [Example 275, (R)-2-(2-((3′-(1-aminoethyl)-4-chloro-2′-fluoro-[1,1′-biphenyl]-3-yl)methoxy)phenyl)acetic acid] belongs 7.89. In turn, `COc1ccc(-c2cccc([C@@H](C)N)c2F)cc1COc1ccccc1CC(=O)O` [Example 276, (R)-2-(2-((3′-(1-aminoethyl)-2′-fluoro-4-methoxy-[1,1′-biphenyl]-3-yl)methoxy)phenyl)acetic acid] had a pIC50 of 6.80. To `N[C@H](CO)c1cc(Cl)cc(-c2cccc(COc3ccccc3CC(=O)O)c2)c1` [Example 277-C, (S)-2-(2-((3′-(1-Amino-2-hydroxyethyl)-5′-chloro-[1,1′-biphenyl]-3-yl)methoxy)phenyl)acetic acid] belongs 6.72; to `NC(CCF)c1cccc(-c2cccc(COc3ccccc3CC(=O)O)c2)c1` (stereo not drawn) [Example 278-B, 2-(2-((3′-(1-amino-3-fluoropropyl)-[1,1′-biphenyl]-3-yl)methoxy)phenyl)acetic acid], 6.31. The same measure for `N[C@H](CCF)c1cccc(-c2cc(Cl)cc(COc3ccccc3CC(=O)O)c2)c1` [Example 279-B, (R)-2-(2-((3′-(1-amino-3-fluoropropyl)-5-chloro-[1,1′-biphenyl]-3-yl)methoxy)phenyl)acetic acid]: 6.54. The same measure for `C[C@@H](N)c1cccc(-c2ccc(C3CC3)c(COc3ccccc3CC(=O)O)c2)c1F` [Example 280, (R)-2-(2-((3′-(1-aminoethyl)-4-cyclopropyl-2′-fluoro-[1,1′-biphenyl]-3-yl)methoxy)phenyl)acetic acid]: 8.22.
